Assay results reported in patent US20240109918A1, “HETEROCYCLIC COMPOUNDS AND USES THEREOF” (Kumquat Biosciences Inc., priority 2022, published 2024).

Experiments:
[1] = biological target: T1, KRASwt (Homo sapiens, UniProt P01116); experiment: Bio-Biochem-PPI-HTRF Ras-SOS1 interaction assay (KRAS wt); format: biochemical; details: 5 nM
T1 construct: made in house; host or cells: E. coli BL21 (DE3)
Procedure, shortened: (§1)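 HTRF readout (ex 337 nm; em 620 and 665 nm) after ≥~10 min incubation; IC50 fitted from 665/620 ratio. GST-K-Ras wt or G12D plus anti-GST-Eu(K), His-hSOS1 plus anti-6His-XL665; duplicate dilutions, 10 μM top.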

[2] = biological target: T2, KRASG12D (Homo sapiens, UniProt P01116, G12D); experiment: Bio-Biochem-PPI-HTRF Ras-SOS1 interaction assay (KRAS G12D); format: biochemical; details: 5 nM
T2 construct: made in house; host or cells: E. coli BL21 (DE3)
Procedure, shortened: as §1

T1 sequence (P01116 1-188 isoform P01116-2): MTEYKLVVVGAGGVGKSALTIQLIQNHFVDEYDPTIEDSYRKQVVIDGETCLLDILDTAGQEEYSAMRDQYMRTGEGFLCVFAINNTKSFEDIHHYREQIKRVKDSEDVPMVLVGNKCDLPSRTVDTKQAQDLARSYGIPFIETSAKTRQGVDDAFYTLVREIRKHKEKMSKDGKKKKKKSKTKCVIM
T2 sequence (P01116 1-188 isoform P01116-2 G12D): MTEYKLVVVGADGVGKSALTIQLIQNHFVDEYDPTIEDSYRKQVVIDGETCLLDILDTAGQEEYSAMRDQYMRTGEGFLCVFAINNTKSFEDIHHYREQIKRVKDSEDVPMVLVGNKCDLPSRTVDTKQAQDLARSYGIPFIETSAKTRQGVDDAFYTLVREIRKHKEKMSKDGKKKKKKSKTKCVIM

IC50 [1] [µM] | IC50 [2] [µM] | SMILES
< 5 | < 5 | N#Cc1c(N)sc2c(F)ccc(-c3c(Cl)cc4c(N5CCCC6(CCNC6)C5)nc(OC[C@@]56CCCN5C[C@H](F)C6)nc4c3F)c12 (stereo partly drawn) [compound 111, 2-amino-4-(6-chloro-8-fluoro-2-(((2R,7aS)-2-fluorotetrahydro-1H-pyrrolizin-7a(5H)-yl)methoxy)-4-(2,7-diazaspiro[4.5]decan-7-yl)quinazolin-7-yl)-7-fluorobenzo[b]thiophene-3-carbonitrile]
< 5 | < 5 | N#Cc1c(N)sc2c(F)ccc(-c3c(Cl)cc4c(N5CCCCC6(CN(C(=O)C7CCCN7)C6)C5)nc(OC[C@@]56CCCN5C[C@H](F)C6)nc4c3F)c12 (stereo partly drawn) [compound 314, 2-amino-4-(6-chloro-8-fluoro-2-(((2R,7aS)-2-fluorotetrahydro-1H-pyrrolizin-7a(5H)-yl)methoxy)-4-(2-prolyl-2,6-diazaspiro[3.6]decan-6-yl)quinazolin-7-yl)-7-fluorobenzo[b]thiophene-3-carbonitrile]
< 5 | < 5 | N#Cc1c(N)sc2c(F)ccc(-c3c(Cl)cc4c(N5CCCC6(CNC6)C5)nc(OC[C@@]56CCCN5C[C@H](F)C6)nc4c3F)c12 [compound 147, 2-amino-4-(6-chloro-8-fluoro-2-(((2R,7aS)-2-fluorotetrahydro-1H-pyrrolizin-7a(5H)-yl)methoxy)-4-(2,6-diazaspiro[3.5]nonan-6-yl)quinazolin-7-yl)-7-fluorobenzo[b]thiophene-3-carbonitrile]
< 5 | < 5 | C#Cc1c(F)ccc2cc(O)cc(-c3ncc4c(N5CCCCC6(CN(C(=O)C(F)F)C6)C5)nc(OC[C@@]56CCCN5C[C@H](F)C6)nc4c3F)c12 [compound 344, 1-(6-(7-(8-ethynyl-7-fluoro-3-hydroxynaphthalen-1-yl)-8-fluoro-2-(((2R,7aS)-2-fluorotetrahydro-1H-pyrrolizin-7a(5H)-yl)methoxy)pyrido [4,3-d]pyrimidin-4-yl)-2,6-diazaspiro[3.6]decan-2-yl)-2,2-difluoroethan-1-one]
< 5 | < 5 | N#Cc1c(N)sc2c(F)ccc(-c3c(Cl)cc4c(N5CCCCC6(CN(C(=O)C7(O)COC7)C6)C5)nc(OC[C@@]56CCCN5C[C@H](F)C6)nc4c3F)c12 [compound 327, 2-amino-4-(6-chloro-8-fluoro-2-(((2R,7aS)-2-fluorotetrahydro-1H-pyrrolizin-7a(5H)-yl)methoxy)-4-(2-(3-hydroxyoxetane-3-carbonyl)-2,6-diazaspiro[3.6]decan-6-yl)quinazolin-7-yl)-7-fluorobenzo[b]thiophene-3-carbonitrile]
< 5 | < 5 | N#Cc1c(N)sc2c(F)ccc(-c3c(Cl)cc4c(N5CC(F)(F)C6(CN(C(=O)C(F)F)C6)C5)nc(OC[C@@]56CCCN5C[C@H](F)C6)nc4c3F)c12 [compound 330, 2-amino-4-(6-chloro-4-(2-(2,2-difluoroacetyl)-8,8-difluoro-2,6-diazaspiro [3.4]octan-6-yl)-8-fluoro-2-(((2R,7aS)-2-fluorotetrahydro-1H-pyrrolizin-7a(5H)-yl)methoxy)quinazolin-7-yl)-7-fluorobenzo[b]thiophene-3-carbonitrile]
< 5 | < 5 | CC(C)(C(=O)N1CC2(CCCCN(c3nc(OC[C@@]45CCCN4C[C@H](F)C5)nc4c(F)c(-c5ccc(F)c6sc(N)c(C#N)c56)c(Cl)cc34)C2)C1)N1CCOCC1 [compound 266, 2-amino-4-(6-chloro-8-fluoro-2-(((2R,7aS)-2-fluorotetrahydro-1H-pyrrolizin-7a(5H)-yl)methoxy)-4-(2-(2-methyl-2-morpholinopropanoyl)-2,6-diazaspiro[3.6]decan-6-yl)quinazolin-7-yl)-7-fluorobenzo[b]thiophene-3-carbonitrile]
< 5 | < 5 | N#Cc1c(N)sc2c(F)ccc(-c3c(Cl)cc4c(N5CCCCC6(CN(C(=O)C7CC7(F)Cl)C6)C5)nc(OC[C@@]56CCCN5C[C@H](F)C6)nc4c3F)c12 (stereo partly drawn) [compound 336, 2-amino-4-(6-chloro-4-(2-(2-chloro-2-fluorocyclopropane-1-carbonyl)-2,6-diazaspiro[3.6]decan-6-yl)-8-fluoro-2-(((2R,7aS)-2-fluorotetrahydro-1H-pyrrolizin-7a(5H)-yl)methoxy)quinazolin-7-yl)-7-fluorobenzo[b]thiophene-3-carbonitrile]
< 5 | < 5 | Nc1nc2c(-c3c(Cl)cc4c(N5CCOC6(CNC6)C5)nc(OC[C@@]56CCCN5C[C@H](F)C6)nc4c3F)ccc(F)c2s1 [compound 107, 4-(6-chloro-8-fluoro-2-(((2R,7aS)-2-fluorotetrahydro-1H-pyrrolizin-7a(5H)-yl)methoxy)-4-(5-oxa-2,8-diazaspiro[3.5]nonan-8-yl)quinazolin-7-yl)-7-fluorobenzo[d]thiazol-2-amine]
< 5 | < 5 | N#CCC1(C(=O)N2CC3(CCCCN(c4nc(OC[C@@]56CCCN5C[C@H](F)C6)nc5c(F)c(-c6ccc(F)c7sc(N)c(C#N)c67)c(Cl)cc45)C3)C2)CCC1 [compound 216, 2-amino-4-(6-chloro-4-(2-(1-(cyanomethyl)cyclobutane-1-carbonyl)-2,6-diazaspiro[3.6]decan-6-yl)-8-fluoro-2-(((2R,7aS)-2-fluorotetrahydro-1H-pyrrolizin-7a(5H)-yl)methoxy)quinazolin-7-yl)-7-fluorobenzo[b]thiophene-3-carbonitrile]
< 5 | < 5 | N#Cc1c(N)sc2c(F)ccc(-c3c(Cl)cc4c(N5CCOC6(CN(C(=O)c7ccnn7C(F)(F)F)C6)C5)nc(OC[C@@]56CCCN5C[C@H](F)C6)nc4c3F)c12 [compound 265, 2-amino-4-(6-chloro-8-fluoro-2-(((2R,7aS)-2-fluorotetrahydro-1H-pyrrolizin-7a(5H)-yl)methoxy)-4-(2-(1-(trifluoromethyl)-1H-pyrazole-5-carbonyl)-5-oxa-2,8-diazaspiro[3.5]nonan-8-yl)quinazolin-7-yl)-7-fluorobenzo[b]thiophene-3-carbonitrile]
< 5 | < 5 | C#Cc1c(F)ccc2cc(O)cc(-c3ncc4c(N5CCOCC6(CN(C(=O)[C@H]7CC7(F)F)C6)C5)nc(OC[C@@]56CCCN5C[C@H](F)C6)nc4c3F)c12 [compound 316, ((R)-2,2-difluorocyclopropyl) (9-(7-(8-ethynyl-7-fluoro-3-hydroxynaphthalen-1-yl)-8-fluoro-2-(((2R,7aS)-2-fluorotetrahydro-1H-pyrrolizin-7a(5H)-yl)methoxy)pyrido[4,3-d]pyrimidin-4-yl)-6-oxa-2,9-diazaspiro[3.6]decan-2-yl)methanone]
< 5 | < 5 | N#Cc1c(N)sc2c(F)ccc(-c3c(Cl)cc4c(N5CCCCC6(CN(C(=O)C7(C(F)F)CC7)C6)C5)nc(OC[C@@]56CCCN5C[C@H](F)C6)nc4c3F)c12 [compound 276, 2-amino-4-(6-chloro-4-(2-(1-(difluoromethyl)cyclopropane-1-carbonyl)-2,6-diazaspiro[3.6]decan-6-yl)-8-fluoro-2-(((2R,7aS)-2-fluorotetrahydro-1H-pyrrolizin-7a(5H)-yl)methoxy)quinazolin-7-yl)-7-fluorobenzo[b]thiophene-3-carbonitrile]
< 5 | < 5 | N#Cc1c(N)sc2c(F)ccc(-c3c(Cl)cc4c(N5CCC(CO)CC6(CN(C(=O)[C@@H]7CC7(F)F)C6)C5)nc(OC[C@@]56CCCN5C[C@H](F)C6)nc4c3F)c12 (stereo partly drawn) [compound 332, 2-amino-4-(6-chloro-4-(2-((S)-2,2-difluorocyclopropane-1-carbonyl)-9-(hydroxymethyl)-2,6-diazaspiro[3.6]decan-6-yl)-8-fluoro-2-(((2R,7aS)-2-fluorotetrahydro-1H-pyrrolizin-7a(5H)-yl)methoxy)quinazolin-7-yl)-7-fluorobenzo[b]thiophene-3-carbonitrile]
< 5 | < 5 | N#Cc1c(N)sc2c(F)ccc(-c3c(Cl)cc4c(N5CCCCC6(CN(C(=O)N7CCC7)C6)C5)nc(OC[C@@]56CCCN5C[C@H](F)C6)nc4c3F)c12 [compound 272, 2-amino-4-(4-(2-(azetidine-1-carbonyl)-2,6-diazaspiro[3.6]decan-6-yl)-6-chloro-8-fluoro-2-(((2R,7aS)-2-fluorotetrahydro-1H-pyrrolizin-7a(5H)-yl)methoxy)quinazolin-7-yl)-7-fluorobenzo[b]thiophene-3-carbonitrile]
< 5 | < 5 | N#Cc1c(N)sc2c(F)ccc(-c3c(Cl)cc4c(N5CCCCC6(CN(C(=O)[C@H]7CC7(F)F)C6)C5)nc(OC[C@@]56CCCN5C[C@H](F)C6)nc4c3F)c12 (single isomer, unassigned) [compound 118]
< 5 | < 5 | Nc1nc2c(-c3c(Cl)cc4c(N5CCC6(CC5)CN(C(=O)c5nc[nH]n5)C6)nc(OC[C@@]56CCCN5C[C@H](F)C6)nc4c3F)ccc(F)c2s1 [compound 248, (7-(7-(2-amino-7-fluorobenzo[d]thiazol-4-yl)-6-chloro-8-fluoro-2-(((2R,7aS)-2-fluorotetrahydro-1H-pyrrolizin-7a(5H)-yl)methoxy)quinazolin-4-yl)-2,7-diazaspiro[3.5]nonan-2-yl) (1H-1,2,4-triazol-3-yl)methanone]
< 5 | < 5 | N#Cc1c(N)sc2c(F)ccc(-c3c(Cl)cc4c(N5CCCCC6(CN(C(=O)C7CC7C(F)(F)F)C6)C5)nc(OC[C@@]56CCCN5C[C@H](F)C6)nc4c3F)c12 (stereo partly drawn) [compound 311, 2-amino-4-(6-chloro-8-fluoro-2-(((2R,7aS)-2-fluorotetrahydro-1H-pyrrolizin-7a(5H)-yl)methoxy)-4-(2-(2-(trifluoromethyl)cyclopropane-1-carbonyl)-2,6-diazaspiro[3.6]decan-6-yl)quinazolin-7-yl)-7-fluorobenzo[b]thiophene-3-carbonitrile]
